Assays:
K562 cells = assay: In-vitro cell proliferation assay (MTT), K562 cells; type: cell-based; conditions: for inhibition at 0.01 µM / inhibition at 0.1 µM: Homo sapiens
Method: In-Vitro Cell Proliferation Assay
K562/U937 cells (2×10^4 per well) were incubated with the test compounds/vehicle in a total volume of 200 μL of media at 37° C. with 5% CO2. […] The cells were incubated overnight at 37° C. with 5% CO2. On Day 5 the optical density was measured at 570 nm with 630 nm as reference wavelength. The optical density in the vehicle treated wells was compared with that of the test compound treated wells.

Abl (T315I) (human) = biological target: T1, Abl (T315I) (human) (Homo sapiens, UniProt P00519, T315I); assay: Abl-T315I kinase inhibition (in vitro); type: biochemical
T1 construct: purchased Millipore Pharma Services (contract assay, UK pharmacology laboratory)
Method: The kinase assays were performed by Millipore Pharma Services at their UK pharmacology laboratory.
[specific activity approx. 500 cpm/pmol, concentration as required). The reaction is initiated by the addition of the MgATP mix. After incubation for 40 minutes at room temperature, the reaction is stopped by the addition of 5 μL of a 3% phosphoric acid solution. 10 μL of the reaction is then spotted onto a P30 filtermat and washed three times for 5 minutes in 75 mM phosphoric acid and once in methanol prior to drying and scintillation counting.
Within each kinase assay, percent of control values were calculated for each test compound raw data point based on mean minimum (0%) and maximum (100%) controls (n=4 per control) for that kinase (sample−mean minimum/mean maximum−mean minimum×100%). Percent inhibition was calculated from these values (100−mean percent of control).

Cc1ccc(C(=O)NNC(=O)c2c(Cl)cc(Cl)cc2Cl)cc1C#Cc1cnc2ccccc2c1 [I.1, 2,4,6-Trichloro-N′-[4-methyl-3-[2-(3-quinolyl)ethynyl]benzoyl]benzohydrazide]
inhibition at 0.01 µM (K562 cells; 10 nM): 101% | inhibition at 0.1 µM (K562 cells; 100 nM): 105%

Cc1ccc(C(=O)NNC(=O)c2ccc(CN3CCN(C)CC3)c(C(F)(F)F)c2)cc1C#Cc1cnc2ccccc2c1 [I.3, 4-Methyl-N′-[4-[(4-methylpiperazin-1-yl)methyl]-3-(trifluoromethyl)benzoyl]-3-[2-(3-quinolyl)ethynyl]benzohydrazide]
inhibition at 0.01 µM (K562 cells; 10 nM): 14.6% | inhibition at 0.1 µM (K562 cells; 100 nM): 73.4%

Cc1ccc(C(=O)NNC(=O)c2c(Cl)cccc2Cl)cc1C#Cc1cnc2ccccc2c1 [I.5, N′-(2,6-Dichlorobenzoyl)-4-methy1-3-[2-(3-quinolyl)ethynyl]benzohydrazide]
% Inhibition of Abl-T315I kinase (Abl (T315I) (human); 3 nM): 30.0% | % Inhibition of Abl-T315I kinase (Abl (T315I) (human); 30 nM): 83.0% | % Inhibition of cell proliferation in K562 cells (K562 cells; 10 nM): 99.8% | % Inhibition of cell proliferation in K562 cells (K562 cells; 100 nM): 99.9%

Cc1cn(-c2cc(C(=O)NNC(=O)c3ccc(C)c(C#Cc4cnc5ccccc5c4)c3)cc(C(F)(F)F)c2)cn1 [I.7, 4-Methyl-N′-[3-(4-methylimidazol-1-yl)-5-(trifluoromethyl)benzoyl]-3-[2-(3-quinolyl)ethynyl]benzohydrazide]
inhibition at 0.01 µM (K562 cells; 10 nM): 12.6% | inhibition at 0.1 µM (K562 cells; 100 nM): 43.1%

Cc1cc(C)c(C(=O)NNC(=O)c2ccc(C)c(C#Cc3cnc4ccccc4c3)c2)c(C)c1 [I.8, 2,4,6-Trimethyl-N′-[4-methyl-3-[2-(3-quinolyl)ethynyl]benzoyl]benzohydrazide]
inhibition at 0.01 µM (K562 cells; 10 nM): 53.6% | inhibition at 0.1 µM (K562 cells; 100 nM): 80.3%

Cc1ccc(C(=O)NNC(=O)c2c(C)cccc2Br)cc1C#Cc1cnc2ccccc2c1 [I.11, N′-(2-Bromo-6-methylbenzoyl)-4-methyl-3-[2-(3-quinolyl)ethynyl]benzohydrazide]
inhibition at 0.01 µM (K562 cells; 10 nM): 78.9% | inhibition at 0.1 µM (K562 cells; 100 nM): 79.9%

COc1cccc(C)c1C(=O)NNC(=O)c1ccc(C)c(C#Cc2cnc3ccccc3c2)c1 [I.13, N′-(2-Methoxy-6-methylbenzoyl)-4-methyl-3-[2-(3-quinolyl)ethynyl]benzohydrazide]
inhibition at 0.01 µM (K562 cells; 10 nM): 52.2% | inhibition at 0.1 µM (K562 cells; 100 nM): 73.5%

Cc1ccc(C(=O)NNC(=O)c2c(C)cccc2F)cc1C#Cc1cnc2ccccc2c1 [I.14, N′-(2-Fluoro-6-methylbenzoyl)-4-methyl-3-[2-(3-quinolyl)ethynyl]benzohydrazide]
inhibition at 0.003 µM (Abl (T315I) (human); 3 nM): 1% | inhibition at 0.03 µM (Abl (T315I) (human); 30 nM): 60% | inhibition at 0.01 µM (K562 cells; 10 nM): 68.5% | inhibition at 0.1 µM (K562 cells; 100 nM): 71.7%

Cc1ccc(C(=O)NNC(=O)c2c(Cl)cc(Cl)cc2Cl)cc1C#Cc1cnc2cnccn12 [I.15, 2,4,6-Trichloro-N′-[3-[2-(2-imidazo[1,2-a]pyrazin-3-yl)ethynyl]-4-methylbenzoyl]benzohydrazide]
% Inhibition of cell proliferation in K562 cells (K562 cells; 10 nM): 82.8% | % Inhibition of cell proliferation in K562 cells (K562 cells; 100 nM): 85.0%

Cc1ccc(C(=O)NNC(=O)c2c(C)cccc2Cl)cc1C#Cc1cnc2ccccn12 [I.19, N′-(2-Chloro-6-methylbenzoyl)-3-[2-(imidazo[1,2-a]pyridin-3-yl)ethynyl]-4-methylbenzohydrazide]
inhibition at 0.01 µM (K562 cells; 10 nM): 60.2% | inhibition at 0.1 µM (K562 cells; 100 nM): 80.2%

Cc1cccc(Cl)c1C(=O)NNC(=O)c1ccc(F)c(C#Cc2cnc3ccccc3c2)c1 [I.21, N′-(2-Cchloro-6-methylbenzoyl)-4-fluoro-3-[2-(3-quinolyl)ethynyl]benzohydrazide]
% Inhibition of cell proliferation in K562 cells (K562 cells; 10 nM): 40.9% | % Inhibition of cell proliferation in K562 cells (K562 cells; 100 nM): 98.6%

Cc1ccc(C(=O)NNC(=O)c2c(F)cccc2I)cc1C#Cc1cnc2ccccc2c1 [I.23, N′-(2-Fluoro-6-iodobenzoyl)-4-methyl-3-[2-(3-quinolyl)ethynyl]benzohydrazide]
inhibition at 0.01 µM (K562 cells; 10 nM): 68.1% | inhibition at 0.1 µM (K562 cells; 100 nM): 72.6%

Cc1ccc(C(=O)NNC(=O)c2c(Cl)cccc2C(F)(F)F)cc1C#Cc1cnc2ccccc2c1 [I.24, N′-[2-Chloro-6-(trifluoromethyl)benzoyl]-4-methyl-3-[2-(3-quinolyl)ethynyl]benzohydrazide]
inhibition at 0.01 µM (K562 cells; 10 nM): 71.1% | inhibition at 0.1 µM (K562 cells; 100 nM): 71.3%

Cc1ccc(C(=O)NNC(=O)c2c(F)cccc2C(F)(F)F)cc1C#Cc1cnc2ccccc2c1 [I.25, N′-[2-Fluoro-6-(trifluoromethyl)benzoyl]-4-methyl-3-[2-(3-quinolyl)ethynyl]benzohydrazide]
inhibition at 0.003 µM (Abl (T315I) (human); 3 nM): 26% | inhibition at 0.03 µM (Abl (T315I) (human); 30 nM): 65% | inhibition at 0.01 µM (K562 cells; 10 nM): 71.5% | inhibition at 0.1 µM (K562 cells; 100 nM): 73%

Cc1ccc(C(=O)NNC(=O)c2c(C)cccc2Cl)cc1C#Cc1cnc2ccc(Cl)cc2n1 [I.26, N′-(2-Chloro-6-methylbenzoyl)-3-[2-(7-chloroquinoxalin-2-yl)ethynyl]-4-methylbenzohydrazide]
inhibition at 0.003 µM (Abl (T315I) (human); 3 nM): 3% | inhibition at 0.03 µM (Abl (T315I) (human); 30 nM): 41% | inhibition at 0.01 µM (K562 cells; 10 nM): 71.8% | inhibition at 0.1 µM (K562 cells; 100 nM): 78.2%

Cc1ccc(C(=O)NNC(=O)c2c(C)cccc2Cl)cc1C#Cc1cnc2ccccc2n1 [I.27, N′-(2-Chloro-6-methylbenzoyl)-4-methyl-3-[2-(quinoxalin-2-yl)ethynyl]benzohydrazide]
inhibition at 0.003 µM (Abl (T315I) (human); 3 nM): 0% | inhibition at 0.03 µM (Abl (T315I) (human); 30 nM): 55% | inhibition at 0.01 µM (K562 cells; 10 nM): 79.3% | inhibition at 0.1 µM (K562 cells; 100 nM): 75.3%

Cc1ccc(C(=O)NNCc2cccnc2Cl)cc1C#Cc1cnc2ccccc2c1 [I.29, N′-(2-Chloronicotinyl)-4-methyl-3-[2-(3-quinolyl)ethynyl]benzohydrazide]
inhibition at 0.01 µM (K562 cells; 10 nM): 27.7% | inhibition at 0.1 µM (K562 cells; 100 nM): 78.5%

Cc1ccc(C(=O)NNC(=O)c2ccccc2C)cc1C#Cc1cnc2ccccc2c1 [I.30, N′-(2-Methylbenzoyl)-4-methyl-3-[2-(3-quinolyl)ethynyl]benzohydrazide]
inhibition at 0.01 µM (K562 cells; 10 nM): 49% | inhibition at 0.1 µM (K562 cells; 100 nM): 85%

CCc1cccc(Cl)c1C(=O)NNC(=O)c1ccc(C)c(C#Cc2cnc3ccccc3c2)c1 [I.31, N′-(2-Chloro-6-ethylbenzoyl)-4-methyl-3-[2-(3-quinolyl)ethynyl]benzohydrazide]
inhibition at 0.01 µM (K562 cells; 10 nM): 74.2% | inhibition at 0.1 µM (K562 cells; 100 nM): 81.4%

Cc1ccc(C(=O)NNC(=O)c2c(Cl)cccc2C(C)C)cc1C#Cc1cnc2ccccc2c1 [I.32, N′-(2-Chloro-6-isopropylbenzoyl)-4-methyl-3-[2-(3-quinolyl)ethynyl]benzohydrazide]
inhibition at 0.01 µM (K562 cells; 10 nM): 50.6% | inhibition at 0.1 µM (K562 cells; 100 nM): 81.9%

COc1cccc(Cl)c1C(=O)NNC(=O)c1ccc(C)c(C#Cc2cnc3ccccc3c2)c1 [I.34, N′-(2-Chloro-6-methoxybenzoyl)-4-methyl-3-[2-(3-quinolyl)ethynyl]benzohydrazide]
inhibition at 0.01 µM (K562 cells; 10 nM): 75.5% | inhibition at 0.1 µM (K562 cells; 100 nM): 82.2%

Cc1ccc(C(=O)NNC(=O)c2c(C)cccc2[N+](=O)[O-])cc1C#Cc1cnc2ccccc2c1 [I.36, N′-(2-Methyl-6-nitrobenzoyl)-4-methyl-3-[2-(3-quinolyl)ethynyl]benzohydrazide]
inhibition at 0.01 µM (K562 cells; 10 nM): 75.9% | inhibition at 0.1 µM (K562 cells; 100 nM): 77.3%

Cc1ccc(C(=O)NNC(=O)c2c(Cl)cccc2I)cc1C#Cc1cnc2ccccc2c1 [I.39, N′-(2-Chloro-6-iodobenzoyl)-4-methyl-3-[2-(3-quinolyl)ethynyl]benzohydrazide]
inhibition at 0.01 µM (K562 cells; 10 nM): 77.1% | inhibition at 0.1 µM (K562 cells; 100 nM): 80.5%

Cc1ccc(C(=O)NNC(=O)c2ccccc2Cl)cc1C#Cc1cnc2ccccc2c1 [I.40, N′-(2-Chlorobenzoyl)-4-methyl-3-[2-(3-quinolyl)ethynyl]benzohydrazide]
inhibition at 0.01 µM (K562 cells; 10 nM): 59.9% | inhibition at 0.1 µM (K562 cells; 100 nM): 84.3%

Cc1ccc(C(=O)NNC(=O)c2c(Cl)cccc2Cl)cc1C#Cc1cnc2cccnn12 [I.41, N′-(2,6-Dichlorobenzoyl)-4-methyl-3-[(imidazo(1,2-b)pyridazin-3-yl)ethynyl]benzohydrazide]
inhibition at 0.01 µM (K562 cells; 10 nM): 82.5% | inhibition at 0.1 µM (K562 cells; 100 nM): 81.1%

Cc1ccc2ncc(C#Cc3cc(C(=O)NNC(=O)c4c(C)cccc4Cl)ccc3C)cc2c1 [I.44, N′-(2-Chloro-6-methylbenzoyl)-4-methyl-3-[2-(6-methyl-3-quinolyl)ethynyl]benzohydrazide]
inhibition at 0.01 µM (K562 cells; 10 nM): 77.7% | inhibition at 0.1 µM (K562 cells; 100 nM): 84.4%

Cc1ccc(C(=O)N(C)NC(=O)c2c(C)cccc2Cl)cc1C#Cc1cnc2ccccc2c1 [I.45, N-Methyl-N′-(2-Chloro-6-methylbenzoyl)-4-methyl-3-[2-(3-quinolyl)ethynyl]benzohydrazide]
inhibition at 0.01 µM (K562 cells; 10 nM): 10.2% | inhibition at 0.1 µM (K562 cells; 100 nM): 78.2%

Cc1ccc(C(=O)NNC(=O)c2c(C)cccc2C)cc1C#Cc1cnc2ccccc2c1 [I.46, N′-(2,6-Dimethylbenzoyl)-4-methyl-3-[2-(3-quinolyl)ethynyl]benzohydrazide]
inhibition at 0.01 µM (K562 cells; 10 nM): 77.9% | inhibition at 0.1 µM (K562 cells; 100 nM): 83.9%

Cc1ccc(C(=O)NNC(=O)c2c(C)cccc2Cl)cc1C#Cc1cnc2ccc(Cl)cc2c1 [I.50, N′-(2-Chloro-6-methylbenzoyl)-4-methyl-3-[2-(6-chloro-3-quinolyl)ethynyl]benzohydrazide]
inhibition at 0.01 µM (K562 cells; 10 nM): 69.6% | inhibition at 0.1 µM (K562 cells; 100 nM): 75%

Cc1cccc(Cl)c1C(=O)NNC(=O)c1cccc(C#Cc2cnc3ccccc3c2)n1 [I.60, N′-(2-Chloro-6-methylbenzoyl)-6-[2-(3-quinolyl)ethynyl]pyridine-2-carboxylic acid hydrazide]
inhibition at 0.01 µM (K562 cells; 10 nM): 8.6% | inhibition at 0.1 µM (K562 cells; 100 nM): 8.5%

Reference: patent US9024021B2, “Diarylacetylene hydrazide containing tyrosine kinase inhibitors” (Sun Pharma Advanced Research Company Ltd., priority 2011, dated 2015)
